Source: BindingDB's records for patent US9062048 (Janssen Pharmaceutica, 2015)
pIC50: −log10 of the molar value.

Molecular target: C-C chemokine receptor type 2 (Homo sapiens, UniProt P41597)
Assay: Receptor Binding Assay

Sequence of C-C chemokine receptor type 2 (P41597 whole entry): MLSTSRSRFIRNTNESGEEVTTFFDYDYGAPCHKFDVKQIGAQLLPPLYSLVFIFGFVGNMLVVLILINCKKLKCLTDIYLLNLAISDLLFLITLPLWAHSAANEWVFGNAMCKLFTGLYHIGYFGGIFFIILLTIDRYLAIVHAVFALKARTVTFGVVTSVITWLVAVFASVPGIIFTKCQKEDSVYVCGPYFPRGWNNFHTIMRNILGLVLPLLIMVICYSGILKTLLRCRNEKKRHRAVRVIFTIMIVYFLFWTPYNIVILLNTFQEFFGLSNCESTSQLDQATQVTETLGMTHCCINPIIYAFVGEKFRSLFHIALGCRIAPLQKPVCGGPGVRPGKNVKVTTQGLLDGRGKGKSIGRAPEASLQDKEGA

Row | pIC50 | SMILES
1 | 6.76 | C[S+]([O-])CC(O)[C@H]1CC[C@@H](N2CC(NC(=O)CNc3ncnc4ccc(C(F)(F)F)cc34)C2)CC1 (some centres not stated) [US9062048, 21]
2 | 5.91 | CCC(NC(=O)NC)[C@H]1CC[C@@H](N2CC(NC(=O)CNc3ncnc4ccc(C(F)(F)F)cc34)C2)CC1 (some centres not stated) [US9062048, 142]
